Source: article PMC11085442 (Molecules, 2024)
Values after ≈ are worked out from the molar mass of the structure shown.

Legend:
[1] = tested on: PC 12 cell line; test: Cytotoxicity assay (CCK-8) on PC 12; type: cell-based, rat; conditions: 20 μM
Experimental: RAW264.7 cells were cultured in 96-well plates at a density of 3 × 10^4 cells/mL in Dulbecco’s modified Eagle’s medium (DMEM, Gibco, Baltimore, MD, USA) with 10% fetal calf serum (Gibco, Baltimore, MD, USA), 100 U/mL penicillin, and 100 μg/mL streptomycin. Plates were incubated in an atmosphere containing 5% CO2 at […]. PC 12 cells were cultured in 96-well plates at a density of 8000 cells/mL in Dulbecco’s modified Eagle’s medium (DMEM, Gibco, Baltimore, MD, USA) with 10% fetal calf serum (Gibco, Baltimore, MD, USA), 100 U/mL penicillin, and 100 μg/mL streptomycin. Plates were incubated in an atmosphere containing 5% CO2 at 37 °C. Cells were treated with different concentrations of test compounds for 48 h. Then, 10 μL CCK-8 solution were added to all the wells. After 4 h incubation, the absorbance at 450 nm of each well was measured in a multiscan photometer.

[2] = tested on: LPS-stimulated RAW264.7 cell lines; test: LPS-induced NO production (Griess) in RAW264.7; type: cell-based, murine; conditions: for The production of NO: LPS group 49.86 ± 0.62, control 1.20 ± 0.38; for inhibitory activity against NO production compared with curcumin: 10 μM
Experimental: RAW 264.7 cells were plated in 96-well plates at a density of 1 × 10^4 cells/well and incubated overnight at 37 °C under 5% CO2. […] Dexamethasone (Solarbio, D8040, Beijing, China) was used as the positive control. Then, 24 h later, NO production was determined by measuring the nitrite content using Griess reagents. Fifty microliters of culture supernatants were transferred to 96-well plates and mixed with 50 μL Griess reagent A. After incubation at room temperature for 5 min, the samples were mixed with an equal volume Griess reagent B for another 5 min. The absorbance of each mixture at 540 nm was measured using a microplate reader.

[3] = tested on: H2O2-stimulated PC 12 cell lines; test: Protection against H2O2-induced oxidative damage (CCK-8); type: cell-based, rat; conditions: for viability at 5 µM / viability at 10 µM / viability at 20 µM: Rattus norvegicus; for viability at 5 µM: PC-12, Dose 5 μM; for viability at 5 µM / viability at 10 µM / viability at 20 µM / Cell viability: H2O2-induced oxidative damage, PC 12, H2O2 group 49.69 ± 1.37, control 100; for viability at 10 µM: PC-12, Dose 10 μM; for viability at 20 µM: PC-12, Dose 20 μM; for anti-oxidant capacity compared with curcumin: 10 μM; for Cell viability: in % (unit assumed)
Experimental: PC 12 cells were seeded in 96-well plates at a density of 8000 cells/well and incubated overnight. […] After incubating under the same conditions for 24 h, 10 μL CCK-8 solution was added to each well. After 2 h incubation, the absorbance of each well was measured at 450 nm using a microplated reader (Multiskan MK-3, Thermo, Waltham, MA, USA).

[4] = tested on: PC 12 cell lines; test: Radiation protection in vitro (CCK-8); type: cell-based, rat; conditions: for radiation protection capacity: versus radiation group; for Cell viability / viability at 20 µM / viability at 5 µM / viability at 10 µM: radiation 8.0 Gy, PC 12, radiation group 50.22 ± 1.08; for Cell viability: in % (unit assumed); for viability at 20 µM / viability at 5 µM / viability at 10 µM: Rattus norvegicus; for viability at 20 µM: PC-12, Dose 20 μM; for viability at 5 µM: PC-12, Dose 5 μM; for viability at 10 µM: PC-12, Dose 10 μM
Experimental: The rat adrenal pheochromocytoma cells (PC 12) were used for in vitro studies. A Cell Counting Kit-8 (CCK-8, Applygen Technologies Co., Ltd., Beijing, China) assay was used to determine cell viability. […] Cells were irradiated with dose of 8.0 Gy at a dose rate of 0.8 Gy/min. Then, 10 μL CCK-8 solution was added to all the wells. After 4 h incubation, the absorbance at 450 nm of each well was measured in a multiscan photometer.

[5] = Aqueous solubility determination by UV spectrophotometer; type: physicochemical; conditions: water, thermodynamic from solid, saturated solution concentration
Experimental: A UV spectrophotometer was used to test the aqueous solubility of target compounds. Each compound to be tested was prepared into solutions with concentrations of 0.2 M, 0.1 M, 0.05 M, 0.025 M, 0.0125 M, 0.00625 M, and 0.003125 M. The optical density (OD) values of the prepared solutions were measured using an ultraviolet spectrophotometer, and concentration–OD-value standard curves were drawn for each compound to be tested. The saturated solutions of the target compounds were diluted by 5000 times and detected using an ultraviolet spectrophotometer to measure the OD values, respectively. The measured OD values were substituted into the corresponding concentration-OD value standard curve to calculate the diluted concentrations, which were multiplied by 5000 to obtain the saturated solution concentrations of the target compounds.

[6] = Dose 5 μM, LPS-stimulated RAW264.7
[7] = Dose 10 μM, LPS-stimulated RAW264.7
[8] = Dose 15 μM, LPS-stimulated RAW264.7

SMILES	solubility [5]	effect on PC 12 cell proliferation [1]	The production of NO [2, 6]	The production of NO [2, 7]	The production of NO [2, 8]	viability at 5 µM [3]	viability at 10 µM [3]	viability at 20 µM [3]	radiation protection capacity ([4]; 10 μM)	Cell viability ([4]; Dose 5 μM)	Cell viability ([4]; Dose 10 μM)	viability at 20 µM [4]	inhibitory activity against NO production compared with curcumin [2]	Cell viability ([4]; Dose 20 μM)	anti-oxidant capacity compared with curcumin ([3]; H2O2-stimulated PC 12)	Cell viability ([3]; Dose 5 μM)	Cell viability ([3]; Dose 10 μM)	Cell viability ([3]; Dose 20 μM)	viability at 5 µM [4]	viability at 10 µM [4]	further results
CCOc1cc(/C=C/C(=O)CC(=O)/C=C/c2cc(CN(C)C)c(O)c(OC)c2)ccc1O [Compound 1]		significant promoting effect	44.55 ± 0.55	34.25 ± 0.96	12.30 ± 0.90	63.9 ± 2.86%	74.7 ± 4.82%	86.4 ± 3.89%	a certain degree of radiation protection capacity	47.61 ± 1.20	57.30 ± 1.29	89.7 ± 8.17%									
COc1ccc(/C=C/C(=O)CC(=O)/C=C/c2cc(CN(C)C)c(O)c(OC)c2)cc1OC [Compound 5]		significant promoting effect	34.62 ± 0.76	16.89 ± 1.33	9.97 ± 1.11	71.02 ± 0.56%	84.4 ± 1.86%	103 ± 3.36%	a certain degree of radiation protection capacity	58.70 ± 4.93	64.93 ± 4.67			104.23 ± 2.86	better anti-oxidant capacity						
COc1cc(O)ccc1/C=C/C(=O)CC(=O)/C=C/c1cc(CN(C)C)c(O)c(OC)c1 [Compound 9a]	167 mg/mL (≈ 393 mM)		36.91 ± 0.59	21.33 ± 0.19	11.29 ± 0.25							70.2 ± 2.99%				63.56 ± 2.88	70.76 ± 3.98	81.08 ± 2.61	56.9 ± 1.03%	60.9 ± 1.55%	
COc1cc(/C=C/C(=O)CC(=O)/C=C/c2cc(C)c(O)c(C)c2)cc(CN(C)C)c1O [Compound 8a]	118 mg/mL (≈ 279 mM)		35.08 ± 2.53	16.57 ± 1.70	4.61 ± 0.29				a certain degree of radiation protection capacity			81.9 ± 2.94%	better inhibitory activity		better anti-oxidant capacity	74.54 ± 1.42	81.49 ± 3.47	87.62 ± 2.98	60.3 ± 1.38%	62.2 ± 0.75%	

The next lines start with results.

solubility [5]	SMILES	effect on PC 12 cell proliferation [1]	The production of NO [2, 6]	The production of NO [2, 7]	The production of NO [2, 8]	viability at 5 µM [3]	viability at 10 µM [3]	viability at 20 µM [3]	radiation protection capacity ([4]; 10 μM)	Cell viability ([4]; Dose 5 μM)	Cell viability ([4]; Dose 10 μM)	viability at 20 µM [4]	inhibitory activity against NO production compared with curcumin [2]	Cell viability ([4]; Dose 20 μM)	anti-oxidant capacity compared with curcumin ([3]; H2O2-stimulated PC 12)	Cell viability ([3]; Dose 5 μM)	Cell viability ([3]; Dose 10 μM)	Cell viability ([3]; Dose 20 μM)	viability at 5 µM [4]	viability at 10 µM [4]	further results
335 mg/mL (≈ 848 mM)	COc1cc(/C=C/C(=O)CC(=O)/C=C/c2ccc(O)cc2)cc(CN(C)C)c1O [Compound 10a]		24.20 ± 1.36	7.81 ± 0.85	3.91 ± 0.22	54.9 ± 1.34%	64.7 ± 2%	84 ± 4.36%		61.98 ± 2.45	67.94 ± 4.69		better inhibitory activity	81.14 ± 3.72							inhibition at 15 µM ([2]; Mus musculus, at 15 μM, LPS-stimulated RAW264.7, read-out: inhibition rate on NO release): 92%; cell survival rate (anti-oxidant) ([3]; at 10 μM, H2O2-stimulated PC 12): 64%
285 mg/mL (≈ 674 mM)	COc1cc(/C=C/C(=O)CC(=O)/C=C/c2c(C)cc(O)cc2C)cc(CN(C)C)c1O [Compound 13a]		17.80 ± 2.19	9.09 ± 1.21	5.58 ± 0.11	71.5 ± 2.53%	77.9 ± 3.02%	90.2 ± 3.77%	a certain degree of radiation protection capacity	66.55 ± 2.11	75.50 ± 1.73		better inhibitory activity	88.50 ± 1.18							radiation protection capability compared with curcumin ([4]; 10 μM, irradiated PC 12): better radiation protection capability
